Experimental data: ChEMBL document CHEMBL1142627, “Ribofuranosyl triazolone: a natural product herbicide with activity on adenylosuccinate synthetase following phosphorylation” (J Nat Prod, 2000)
The source made the active and inactive calls. The rule behind the calls is not given here.

Experiments:
Amaranthus retroflexus [1] = assay: Phytotoxicity against Amaranthus retroflexus assessed as visual injury at 0.5 kg/ha growth rate treated pre-emergence by greenhouse test; assay type: functional
Ipomoea hederacea [2] = assay: Phytotoxicity against Ipomoea hederacea assessed as visual injury at 2.0 kg/ha growth rate treated post-emergence by greenhouse test; assay type: functional
Ipomoea hederacea [3] = assay: Phytotoxicity against Ipomoea hederacea assessed as visual injury at 1.0 kg/ha growth rate treated pre-emergence by greenhouse test; assay type: functional
Echinochloa crus-galli [4] = assay: Phytotoxicity against Echinochloa crusgalli assessed as visual injury at 4.0 kg/ha growth rate treated pre-emergence by greenhouse test; assay type: functional
Amaranthus retroflexus [5] = assay: Phytotoxicity against Amaranthus retroflexus assessed as visual injury at 2.0 kg/ha growth rate treated pre-emergence by greenhouse test; assay type: functional
Helianthus annuus [6] = assay: Phytotoxicity against Helianthus annuus assessed as visual injury at 0.5 kg/ha growth rate treated pre-emergence by greenhouse test; assay type: functional
Helianthus annuus [7] = assay: Phytotoxicity against Helianthus annuus assessed as visual injury at 4.0 kg/ha growth rate treated pre-emergence by greenhouse test; assay type: functional
Echinochloa crus-galli [8] = assay: Phytotoxicity against Echinochloa crusgalli assessed as visual injury at 0.5 kg/ha growth rate treated pre-emergence by greenhouse test; assay type: functional
Arabidopsis thaliana [9] = assay: Metabolite reversal in Arabidopsis thaliana assessed as root growth inhibition in presence of adenine and guanine; assay type: functional, organism-based
Avena fatua [10] = assay: Phytotoxicity against Avena fatua assessed as visual injury at 1.0 kg/ha growth rate treated pre-emergence by greenhouse test; assay type: functional
Oryctolagus cuniculus = species: Oryctolagus cuniculus; assay: (§1) Inhibition of rabbit muscle Adenylosuccinate synthase assessed as adenylosuccinate formation
Amaranthus retroflexus [11] = assay: Phytotoxicity against Amaranthus retroflexus assessed as visual injury at 4.0 kg/ha growth rate treated pre-emergence by greenhouse test; assay type: functional
Echinochloa crus-galli [12] = assay: Phytotoxicity against Echinochloa crusgalli assessed as visual injury at 4.0 kg/ha growth rate treated post-emergence by greenhouse test; assay type: functional
Echinochloa crus-galli [13] = assay: Phytotoxicity against Echinochloa crusgalli assessed as visual injury at 2.0 kg/ha growth rate treated pre-emergence by greenhouse test; assay type: functional
Alopecurus myosuroides [14] = assay: Phytotoxicity against Alopecurus myosuroides assessed as visual injury at 1.0 kg/ha growth rate treated post-emergence by greenhouse test; assay type: functional
Ipomoea hederacea [15] = assay: Phytotoxicity against Ipomoea hederacea assessed as visual injury at 0.5 kg/ha growth rate treated pre-emergence by greenhouse test; assay type: functional
Arabidopsis thaliana [16] = assay: Metabolite reversal in Arabidopsis thaliana assessed as root growth inhibition in presence of guanine; assay type: functional, organism-based
Setaria faberi [17] = assay: Phytotoxicity against Setaria faberi assessed as visual injury at 2.0 kg/ha growth rate treated pre-emergence by greenhouse test; assay type: functional
Arabidopsis thaliana [18] = assay: Inhibition of Arabidopsis thaliana root growth; assay type: functional, organism-based
Abutilon theophrasti [19] = assay: Phytotoxicity against Abutilon theophrasti assessed as visual injury at 0.5 kg/ha growth rate treated pre-emergence by greenhouse test; assay type: functional
Alopecurus myosuroides [20] = assay: Phytotoxicity against Alopecurus myosuroides assessed as visual injury at 4.0 kg/ha growth rate treated pre-emergence by greenhouse test; assay type: functional
Setaria faberi [21] = assay: Phytotoxicity against Setaria faberi assessed as visual injury at 0.5 kg/ha growth rate treated post-emergence by greenhouse test; assay type: functional
Ipomoea hederacea [22] = assay: Phytotoxicity against Ipomoea hederacea assessed as visual injury at 0.5 kg/ha growth rate treated post-emergence by greenhouse test; assay type: functional
Ipomoea hederacea [23] = assay: Phytotoxicity against Ipomoea hederacea assessed as visual injury at 1.0 kg/ha growth rate treated post-emergence by greenhouse test; assay type: functional
Helianthus annuus [24] = assay: Phytotoxicity against Helianthus annuus assessed as visual injury at 2.0 kg/ha growth rate treated post-emergence by greenhouse test; assay type: functional
Abutilon theophrasti [25] = assay: Phytotoxicity against Abutilon theophrasti assessed as visual injury at 2.0 kg/ha growth rate treated pre-emergence by greenhouse test; assay type: functional
Helianthus annuus [26] = assay: Phytotoxicity against Helianthus annuus assessed as visual injury at 0.5 kg/ha growth rate treated post-emergence by greenhouse test; assay type: functional
Avena fatua [27] = assay: Phytotoxicity against Avena fatua assessed as visual injury at 2.0 kg/ha growth rate treated post-emergence by greenhouse test; assay type: functional
Helianthus annuus [28] = assay: Phytotoxicity against Helianthus annuus assessed as visual injury at 2.0 kg/ha growth rate treated pre-emergence by greenhouse test; assay type: functional
Abutilon theophrasti [29] = assay: Phytotoxicity against Abutilon theophrasti assessed as visual injury at 0.5 kg/ha growth rate treated post-emergence by greenhouse test; assay type: functional
Setaria faberi [30] = assay: Phytotoxicity against Setaria faberi assessed as visual injury at 1.0 kg/ha growth rate treated post-emergence by greenhouse test; assay type: functional
Alopecurus myosuroides [31] = assay: Phytotoxicity against Alopecurus myosuroides assessed as visual injury at 1.0 kg/ha growth rate treated pre-emergence by greenhouse test; assay type: functional
Setaria faberi [32] = assay: Phytotoxicity against Setaria faberi assessed as visual injury at 0.5 kg/ha growth rate treated pre-emergence by greenhouse test; assay type: functional
Helianthus annuus [33] = assay: Phytotoxicity against Helianthus annuus assessed as visual injury at 4.0 kg/ha growth rate treated post-emergence by greenhouse test; assay type: functional
Abutilon theophrasti [34] = assay: Phytotoxicity against Abutilon theophrasti assessed as visual injury at 1.0 kg/ha growth rate treated pre-emergence by greenhouse test; assay type: functional
Ipomoea hederacea [35] = assay: Phytotoxicity against Ipomoea hederacea assessed as visual injury at 4.0 kg/ha growth rate treated post-emergence by greenhouse test; assay type: functional
Alopecurus myosuroides [36] = assay: Phytotoxicity against Alopecurus myosuroides assessed as visual injury at 2.0 kg/ha growth rate treated post-emergence by greenhouse test; assay type: functional
Echinochloa crus-galli [37] = assay: Phytotoxicity against Echinochloa crusgalli assessed as visual injury at 2.0 kg/ha growth rate treated post-emergence by greenhouse test; assay type: functional
Avena fatua [38] = assay: Phytotoxicity against Avena fatua assessed as visual injury at 4.0 kg/ha growth rate treated pre-emergence by greenhouse test; assay type: functional
Ipomoea hederacea [39] = assay: Phytotoxicity against Ipomoea hederacea assessed as visual injury at 4.0 kg/ha growth rate treated pre-emergence by greenhouse test; assay type: functional
Setaria faberi [40] = assay: Phytotoxicity against Setaria faberi assessed as visual injury at 1.0 kg/ha growth rate treated pre-emergence by greenhouse test; assay type: functional
Avena fatua [41] = assay: Phytotoxicity against Avena fatua assessed as visual injury at 4.0 kg/ha growth rate treated post-emergence by greenhouse test; assay type: functional
Echinochloa crus-galli [42] = assay: Phytotoxicity against Echinochloa crusgalli assessed as visual injury at 0.5 kg/ha growth rate treated post-emergence by greenhouse test; assay type: functional
Abutilon theophrasti [43] = assay: Phytotoxicity against Abutilon theophrasti assessed as visual injury at 2.0 kg/ha growth rate treated post-emergence by greenhouse test; assay type: functional
Amaranthus retroflexus [44] = assay: Phytotoxicity against Amaranthus retroflexus assessed as visual injury at 2.0 kg/ha growth rate treated post-emergence by greenhouse test; assay type: functional
Arabidopsis thaliana [45] = assay: Metabolite reversal in Arabidopsis thaliana assessed as root growth inhibition in presence of adenine; assay type: functional, organism-based
Avena fatua [46] = assay: Phytotoxicity against Avena fatua assessed as visual injury at 0.5 kg/ha growth rate treated post-emergence by greenhouse test; assay type: functional
Helianthus annuus [47] = assay: Phytotoxicity against Helianthus annuus assessed as visual injury at 1.0 kg/ha growth rate treated pre-emergence by greenhouse test; assay type: functional
Setaria faberi [48] = assay: Phytotoxicity against Setaria faberi assessed as visual injury at 2.0 kg/ha growth rate treated post-emergence by greenhouse test; assay type: functional
Setaria faberi [49] = assay: Phytotoxicity against Setaria faberi assessed as visual injury at 4.0 kg/ha growth rate treated pre-emergence by greenhouse test; assay type: functional
Alopecurus myosuroides [50] = assay: Phytotoxicity against Alopecurus myosuroides assessed as visual injury at 0.5 kg/ha growth rate treated pre-emergence by greenhouse test; assay type: functional
Avena fatua [51] = assay: Phytotoxicity against Avena fatua assessed as visual injury at 0.5 kg/ha growth rate treated pre-emergence by greenhouse test; assay type: functional
Setaria faberi [52] = assay: Phytotoxicity against Setaria faberi assessed as visual injury at 4.0 kg/ha growth rate treated post-emergence by greenhouse test; assay type: functional
Amaranthus retroflexus [53] = assay: Phytotoxicity against Amaranthus retroflexus assessed as visual injury at 1.0 kg/ha growth rate treated post-emergence by greenhouse test; assay type: functional
Alopecurus myosuroides [54] = assay: Phytotoxicity against Alopecurus myosuroides assessed as visual injury at 0.5 kg/ha growth rate treated post-emergence by greenhouse test; assay type: functional
Amaranthus retroflexus [55] = assay: Phytotoxicity against Amaranthus retroflexus assessed as visual injury at 4.0 kg/ha growth rate treated post-emergence by greenhouse test; assay type: functional
Alopecurus myosuroides [56] = assay: Phytotoxicity against Alopecurus myosuroides assessed as visual injury at 4.0 kg/ha growth rate treated post-emergence by greenhouse test; assay type: functional
Alopecurus myosuroides [57] = assay: Phytotoxicity against Alopecurus myosuroides assessed as visual injury at 2.0 kg/ha growth rate treated pre-emergence by greenhouse test; assay type: functional
BMS = assay: (§2) Inhibition of Zea mays BMS cells Adenylosuccinate synthase assessed as adenylosuccinate formation; assay type: cell-based
Helianthus annuus [58] = assay: Phytotoxicity against Helianthus annuus assessed as visual injury at 1.0 kg/ha growth rate treated post-emergence by greenhouse test; assay type: functional
Abutilon theophrasti [59] = assay: Phytotoxicity against Abutilon theophrasti assessed as visual injury at 1.0 kg/ha growth rate treated post-emergence by greenhouse test; assay type: functional
Abutilon theophrasti [60] = assay: Phytotoxicity against Abutilon theophrasti assessed as visual injury at 4.0 kg/ha growth rate treated pre-emergence by greenhouse test; assay type: functional
Avena fatua [61] = assay: Phytotoxicity against Avena fatua assessed as visual injury at 1.0 kg/ha growth rate treated post-emergence by greenhouse test; assay type: functional
Amaranthus retroflexus [62] = assay: Phytotoxicity against Amaranthus retroflexus assessed as visual injury at 0.5 kg/ha growth rate treated post-emergence by greenhouse test; assay type: functional
Echinochloa crus-galli [63] = assay: Phytotoxicity against Echinochloa crusgalli assessed as visual injury at 1.0 kg/ha growth rate treated pre-emergence by greenhouse test; assay type: functional
Echinochloa crus-galli [64] = assay: Phytotoxicity against Echinochloa crusgalli assessed as visual injury at 1.0 kg/ha growth rate treated post-emergence by greenhouse test; assay type: functional
Amaranthus retroflexus [65] = assay: Phytotoxicity against Amaranthus retroflexus assessed as visual injury at 1.0 kg/ha growth rate treated pre-emergence by greenhouse test; assay type: functional
Ipomoea hederacea [66] = assay: Phytotoxicity against Ipomoea hederacea assessed as visual injury at 2.0 kg/ha growth rate treated pre-emergence by greenhouse test; assay type: functional
Abutilon theophrasti [67] = assay: Phytotoxicity against Abutilon theophrasti assessed as visual injury at 4.0 kg/ha growth rate treated post-emergence by greenhouse test; assay type: functional
Avena fatua [68] = assay: Phytotoxicity against Avena fatua assessed as visual injury at 2.0 kg/ha growth rate treated pre-emergence by greenhouse test; assay type: functional
[69] = as §1; design: species or system Oryctolagus cuniculus; details: read-out: I50
[70] = as §2; assay type: cell-based; details: read-out: I50
[71] = Arabidopsis thaliana, read-out: I50

## O=c1[nH]ncn1[C@@H]1O[C@H](CO)[C@@H](O)[C@H]1O
Amaranthus retroflexus [1]
  Activity: 0%
Ipomoea hederacea [2]
  Activity: 80%
Ipomoea hederacea [3]
  Activity: 25%
Echinochloa crus-galli [4]
  Activity: 0%
Amaranthus retroflexus [5]
  Activity: 0%
Helianthus annuus [6]
  Activity: 0%
Helianthus annuus [7]
  Activity: 60%
Echinochloa crus-galli [8]
  Activity: 0%
Arabidopsis thaliana [9]
  I50: 2.5 ppm
Arabidopsis thaliana [9]; [71]
  IC50: 11500 nM
Avena fatua [10]
  Activity: 0%
Oryctolagus cuniculus
  Activity: inactive
Amaranthus retroflexus [11]
  Activity: 0%
Echinochloa crus-galli [12]
  Activity: 90%
Echinochloa crus-galli [13]
  Activity: 0%
Alopecurus myosuroides [14]
  Activity: 70%
Ipomoea hederacea [15]
  Activity: 15%
Arabidopsis thaliana [16]
  Activity: inactive
Setaria faberi [17]
  Activity: 0%
Arabidopsis thaliana [18]
  I50: 0.04 ppm
Arabidopsis thaliana [18]; [71]
  IC50: 200 nM
Abutilon theophrasti [19]
  Activity: 15%
Alopecurus myosuroides [20]
  Activity: 40%
Setaria faberi [21]
  Activity: 50%
Ipomoea hederacea [22]
  Activity: 75%
Ipomoea hederacea [23]
  Activity: 80%
Helianthus annuus [24]
  Activity: 95%
Abutilon theophrasti [25]
  Activity: 30%
Helianthus annuus [26]
  Activity: 90%
Avena fatua [27]
  Activity: 70%
Helianthus annuus [28]
  Activity: 20%
Abutilon theophrasti [29]
  Activity: 85%
Setaria faberi [30]
  Activity: 70%
Alopecurus myosuroides [31]
  Activity: 30%
Setaria faberi [32]
  Activity: 0%
Helianthus annuus [33]
  Activity: 95%
Abutilon theophrasti [34]
  Activity: 30%
Ipomoea hederacea [35]
  Activity: 90%
Alopecurus myosuroides [36]
  Activity: 70%
Echinochloa crus-galli [37]
  Activity: 85%
Avena fatua [38]
  Activity: 0%
Ipomoea hederacea [39]
  Activity: 40%
Setaria faberi [40]
  Activity: 0%
Avena fatua [41]
  Activity: 60%
Echinochloa crus-galli [42]
  Activity: 70%
Abutilon theophrasti [43]
  Activity: 80%
Amaranthus retroflexus [44]
  Activity: 50%
Arabidopsis thaliana [45]
  I50: 1.8 ppm
Arabidopsis thaliana [45]; [71]
  IC50: 8300 nM
Avena fatua [46]
  Activity: 50%
Helianthus annuus [47]
  Activity: 10%
Setaria faberi [48]
  Activity: 60%
Setaria faberi [49]
  Activity: 0%
Alopecurus myosuroides [50]
  Activity: 0%
Avena fatua [51]
  Activity: 0%
Setaria faberi [52]
  Activity: 85%
Amaranthus retroflexus [53]
  Activity: 50%
Alopecurus myosuroides [54]
  Activity: 40%
Amaranthus retroflexus [55]
  Activity: 70%
Alopecurus myosuroides [56]
  Activity: 80%
Alopecurus myosuroides [57]
  Activity: 35%
BMS
  Activity: inactive
Helianthus annuus [58]
  Activity: 100%
Abutilon theophrasti [59]
  Activity: 70%
Abutilon theophrasti [60]
  Activity: 65%
Avena fatua [61]
  Activity: 60%
Amaranthus retroflexus [62]
  Activity: 0%
Echinochloa crus-galli [63]
  Activity: 0%
Echinochloa crus-galli [64]
  Activity: 85%
Amaranthus retroflexus [65]
  Activity: 0%
Ipomoea hederacea [66]
  Activity: 40%
Abutilon theophrasti [67]
  Activity: 80%
Avena fatua [68]
  Activity: 0%

## O=c1[nH]ncn1[C@@H]1O[C@H](COP(=O)(O)O)[C@@H](O)[C@H]1O [PHOSPHORIBOFURANOSYL TRIAZOLONE]
Oryctolagus cuniculus; TDE = time-dependent effect
  Activity: tde
[69]
  IC50: 180 nM
[70]
  IC50: 980 nM

## O=C1NC(=O)[C@@]2(N1)O[C@H](COP(=O)(O)O)[C@@H](O)[C@H]2O
Oryctolagus cuniculus; TDE = time-dependent effect
  Activity: tde
BMS; TDE = time-dependent effect
  Activity: tde
